One block for each molecule: values may come before it.
Experiments:
[1] = molecular target: T1, Myosin light chain kinase, smooth muscle (Homo sapiens, UniProt Q15746); experiment: Selectivity interaction (Ambit KINOMEscan and KiNATiv profiling in Jurkat cells) EUB0000090b MYLK; assay type: cell-based; settings: at 1 µM
[2] = molecular target: T2, Ephrin type-B receptor 4 (Homo sapiens) (UniProt P54760); experiment: Selectivity interaction (KinomeScan (DiscoverX)) EUB0000655a EPHB4; settings: at 10 µM
T2 sequence (whole entry): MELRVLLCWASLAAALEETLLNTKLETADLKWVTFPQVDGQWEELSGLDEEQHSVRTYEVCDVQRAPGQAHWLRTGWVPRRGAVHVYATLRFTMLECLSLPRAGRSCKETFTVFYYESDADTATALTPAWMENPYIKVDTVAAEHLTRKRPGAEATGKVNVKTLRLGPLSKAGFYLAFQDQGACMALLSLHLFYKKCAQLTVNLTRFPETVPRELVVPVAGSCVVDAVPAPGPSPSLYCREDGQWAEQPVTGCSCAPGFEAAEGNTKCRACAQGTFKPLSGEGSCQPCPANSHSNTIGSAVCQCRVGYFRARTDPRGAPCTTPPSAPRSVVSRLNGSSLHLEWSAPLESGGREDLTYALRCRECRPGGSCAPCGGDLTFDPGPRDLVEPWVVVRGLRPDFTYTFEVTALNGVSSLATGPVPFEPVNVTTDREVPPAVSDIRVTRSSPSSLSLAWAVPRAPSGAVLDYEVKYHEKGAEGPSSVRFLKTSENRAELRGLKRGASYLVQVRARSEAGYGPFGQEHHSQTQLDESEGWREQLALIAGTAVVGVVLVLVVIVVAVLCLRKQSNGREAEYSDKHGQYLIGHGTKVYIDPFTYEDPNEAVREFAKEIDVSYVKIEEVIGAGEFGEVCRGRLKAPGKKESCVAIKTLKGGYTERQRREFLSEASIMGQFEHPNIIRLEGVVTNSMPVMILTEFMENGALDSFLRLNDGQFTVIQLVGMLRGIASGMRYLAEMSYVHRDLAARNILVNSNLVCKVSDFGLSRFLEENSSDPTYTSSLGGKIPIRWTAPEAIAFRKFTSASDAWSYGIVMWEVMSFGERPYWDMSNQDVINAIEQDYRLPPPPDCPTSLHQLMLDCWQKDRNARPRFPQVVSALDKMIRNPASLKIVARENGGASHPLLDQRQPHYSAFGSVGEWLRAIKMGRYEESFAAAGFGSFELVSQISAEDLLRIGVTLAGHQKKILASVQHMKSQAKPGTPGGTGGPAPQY

[3] = molecular target: Mitogen-activated protein kinase 9 (Homo sapiens, UniProt P45984); experiment: Selectivity interaction (KinomeScan (DiscoverX)) EUB0001079a MAPK9; settings: at 1 µM
[4] = molecular target: T1, Myosin light chain kinase, smooth muscle; experiment: Selectivity interaction (KinomeScan (DiscoverX)) EUB0000618a MYLK; settings: at 10 µM
[5] = molecular target: T3, Homeodomain-interacting protein kinase 4 (Homo sapiens) (UniProt Q8NE63); experiment: Selectivity interaction (SelectScreen profiling (Invitrogen)) EUB0000607a HIPK4; settings: at 2 µM
T3 sequence (whole entry): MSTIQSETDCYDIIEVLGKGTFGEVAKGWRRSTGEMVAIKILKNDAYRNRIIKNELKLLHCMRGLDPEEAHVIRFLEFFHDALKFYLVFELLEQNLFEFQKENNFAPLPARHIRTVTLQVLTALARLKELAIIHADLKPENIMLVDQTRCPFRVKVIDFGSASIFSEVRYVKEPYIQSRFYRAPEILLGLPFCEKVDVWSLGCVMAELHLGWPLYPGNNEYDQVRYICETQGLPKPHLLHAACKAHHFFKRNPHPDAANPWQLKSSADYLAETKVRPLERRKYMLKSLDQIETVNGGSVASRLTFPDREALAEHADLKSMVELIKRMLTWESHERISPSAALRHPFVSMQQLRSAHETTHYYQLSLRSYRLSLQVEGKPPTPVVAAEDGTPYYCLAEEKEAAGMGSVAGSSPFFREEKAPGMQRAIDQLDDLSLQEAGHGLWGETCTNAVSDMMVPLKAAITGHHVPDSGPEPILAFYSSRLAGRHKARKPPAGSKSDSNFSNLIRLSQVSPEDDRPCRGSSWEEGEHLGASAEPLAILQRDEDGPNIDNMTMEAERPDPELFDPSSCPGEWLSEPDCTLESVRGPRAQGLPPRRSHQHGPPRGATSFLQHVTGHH

[6] = molecular target: Tyrosine-protein kinase BTK (Homo sapiens, UniProt Q06187); settings: at 1 µM
[7] = molecular target: CDK9/Cyclin K (Homo sapiens) (UniProt P50750+O75909); experiment: Selectivity interaction (LanthaScreen Eu Kinase Binding Assay) EUB0001632a CDK9; assay type: protein-complex assay; settings: at 10 µM

T1 sequence (Q15746 whole entry): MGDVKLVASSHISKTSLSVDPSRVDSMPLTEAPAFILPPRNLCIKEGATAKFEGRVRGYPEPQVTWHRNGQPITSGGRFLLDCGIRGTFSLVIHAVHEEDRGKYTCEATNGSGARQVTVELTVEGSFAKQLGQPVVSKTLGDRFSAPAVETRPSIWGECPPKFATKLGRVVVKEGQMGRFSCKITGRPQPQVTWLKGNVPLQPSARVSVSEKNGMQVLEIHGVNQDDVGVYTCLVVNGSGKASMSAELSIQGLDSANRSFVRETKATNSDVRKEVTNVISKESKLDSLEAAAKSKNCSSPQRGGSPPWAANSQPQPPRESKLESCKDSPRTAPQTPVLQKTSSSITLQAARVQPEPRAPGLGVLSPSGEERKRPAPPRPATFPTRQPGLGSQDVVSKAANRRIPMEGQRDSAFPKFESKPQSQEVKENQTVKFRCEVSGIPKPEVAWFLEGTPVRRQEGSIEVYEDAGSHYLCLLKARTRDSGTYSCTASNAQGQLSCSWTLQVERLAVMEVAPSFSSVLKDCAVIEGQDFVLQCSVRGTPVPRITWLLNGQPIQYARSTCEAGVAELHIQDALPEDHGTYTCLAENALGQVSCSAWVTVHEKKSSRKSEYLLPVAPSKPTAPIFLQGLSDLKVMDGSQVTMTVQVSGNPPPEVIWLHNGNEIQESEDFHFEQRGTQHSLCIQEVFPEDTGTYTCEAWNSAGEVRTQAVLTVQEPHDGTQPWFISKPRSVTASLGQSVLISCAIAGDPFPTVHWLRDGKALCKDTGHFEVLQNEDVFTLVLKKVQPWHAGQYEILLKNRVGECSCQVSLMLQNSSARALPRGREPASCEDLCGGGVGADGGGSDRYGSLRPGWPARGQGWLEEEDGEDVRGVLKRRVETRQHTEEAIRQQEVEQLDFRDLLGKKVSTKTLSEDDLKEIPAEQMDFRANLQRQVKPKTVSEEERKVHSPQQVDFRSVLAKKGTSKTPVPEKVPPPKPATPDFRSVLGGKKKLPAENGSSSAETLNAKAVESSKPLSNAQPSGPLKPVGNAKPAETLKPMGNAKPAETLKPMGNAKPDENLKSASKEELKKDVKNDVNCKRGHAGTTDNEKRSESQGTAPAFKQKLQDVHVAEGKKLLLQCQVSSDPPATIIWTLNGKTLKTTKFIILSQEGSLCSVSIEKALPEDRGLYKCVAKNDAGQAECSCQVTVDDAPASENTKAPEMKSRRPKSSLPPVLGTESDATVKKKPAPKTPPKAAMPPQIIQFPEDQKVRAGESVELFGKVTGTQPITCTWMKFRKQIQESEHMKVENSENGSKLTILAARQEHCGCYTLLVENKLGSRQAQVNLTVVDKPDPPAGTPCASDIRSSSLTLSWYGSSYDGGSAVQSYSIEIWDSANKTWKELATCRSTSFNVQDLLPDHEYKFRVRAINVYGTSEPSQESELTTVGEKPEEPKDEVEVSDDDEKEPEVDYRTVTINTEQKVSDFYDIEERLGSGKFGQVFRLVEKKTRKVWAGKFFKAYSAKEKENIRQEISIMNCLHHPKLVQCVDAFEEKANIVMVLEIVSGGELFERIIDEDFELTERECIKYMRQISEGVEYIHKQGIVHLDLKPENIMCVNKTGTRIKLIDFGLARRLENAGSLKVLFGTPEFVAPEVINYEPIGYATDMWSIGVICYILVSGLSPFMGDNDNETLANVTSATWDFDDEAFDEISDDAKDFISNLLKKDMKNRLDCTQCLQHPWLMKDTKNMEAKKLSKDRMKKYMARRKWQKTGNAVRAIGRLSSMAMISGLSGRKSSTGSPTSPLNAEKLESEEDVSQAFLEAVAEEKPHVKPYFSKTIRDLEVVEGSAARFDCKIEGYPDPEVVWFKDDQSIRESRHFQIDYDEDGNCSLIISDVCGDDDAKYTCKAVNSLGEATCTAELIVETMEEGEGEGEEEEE
Tyrosine-protein kinase BTK, sequence (Q06187 whole entry): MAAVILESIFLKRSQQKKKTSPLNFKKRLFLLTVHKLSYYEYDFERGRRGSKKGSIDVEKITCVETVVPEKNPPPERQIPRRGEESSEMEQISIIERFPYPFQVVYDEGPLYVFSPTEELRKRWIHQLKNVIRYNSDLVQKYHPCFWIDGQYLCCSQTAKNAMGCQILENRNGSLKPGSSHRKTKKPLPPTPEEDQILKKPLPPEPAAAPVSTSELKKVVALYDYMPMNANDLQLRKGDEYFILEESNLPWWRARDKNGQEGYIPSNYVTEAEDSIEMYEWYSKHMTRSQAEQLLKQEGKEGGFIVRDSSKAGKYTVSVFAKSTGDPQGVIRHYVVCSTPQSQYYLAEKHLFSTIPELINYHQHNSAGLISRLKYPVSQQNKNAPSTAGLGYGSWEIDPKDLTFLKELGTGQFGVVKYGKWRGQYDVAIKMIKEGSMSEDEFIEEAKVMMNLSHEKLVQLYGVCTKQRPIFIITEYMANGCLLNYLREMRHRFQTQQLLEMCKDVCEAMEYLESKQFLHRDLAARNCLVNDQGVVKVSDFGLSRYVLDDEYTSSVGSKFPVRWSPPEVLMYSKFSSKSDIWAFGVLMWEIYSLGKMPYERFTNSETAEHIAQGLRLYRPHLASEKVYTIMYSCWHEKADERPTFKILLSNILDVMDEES
Mitogen-activated protein kinase 9, sequence (P45984 whole entry, looked up): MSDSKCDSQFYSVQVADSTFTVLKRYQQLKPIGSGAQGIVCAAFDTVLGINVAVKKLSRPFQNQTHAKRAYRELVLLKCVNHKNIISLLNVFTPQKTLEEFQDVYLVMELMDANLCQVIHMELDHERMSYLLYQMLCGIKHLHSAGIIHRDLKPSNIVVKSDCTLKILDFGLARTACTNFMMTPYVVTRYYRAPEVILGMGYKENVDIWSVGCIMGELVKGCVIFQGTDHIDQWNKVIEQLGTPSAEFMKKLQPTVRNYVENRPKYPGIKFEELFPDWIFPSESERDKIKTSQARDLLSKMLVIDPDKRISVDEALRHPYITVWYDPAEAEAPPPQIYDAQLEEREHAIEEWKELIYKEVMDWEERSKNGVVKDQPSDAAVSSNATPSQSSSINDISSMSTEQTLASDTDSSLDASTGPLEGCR

Compound: CN(C)C/C=C/C(=O)Nc1ccc(C(=O)N2CCCC(Nc3ncc(Cl)c(-c4c[nH]c5ccccc45)n3)C2)cc1 (configuration not stated)
% of control [1]: 100%

Compound: CN(C)CCOc1ccc(-c2nc(-c3ccncc3)c(-c3ccc4c(c3)CC/C4=N\O)[nH]2)cc1
% of control [2]: 100%

Compound: Nc1cnc(N2CCc3cc(S(=O)(=O)Nc4c(F)cc(Cl)cc4F)cc(N4CCCC4=O)c32)nc1 [TP-020n]
% of control [3]: 84%

Compound: O[C@H]1CC[C@H](Nc2ncc3nc(Nc4c(F)cc(F)cc4F)n([C@H]4CCOC4)c3n2)CC1
% of control [4]: 65%

Compound: CNC(=O)Nc1ccc(-c2nc(N3CC4CCC(C3)O4)c3cnn(C4CCC5(CC4)OCCO5)c3n2)cc1
% of inhibition [5]: 7%

% of control [6]: 2.9%
Compound: Cc1cc(-c2ccnc(Nc3cnn(C)c3)n2)ccc1CNC(=O)N1CC(OC(C)C)C1

% of inhibition [7]: -32.1%
Compound: Cn1cc(-n2cnc3c(NCc4nc5cc(Cl)c(Cl)cc5[nH]4)nc(N4CCOCC4)nc32)cn1

Source: ChEMBL document CHEMBL5465560, “Selectivity Literature for EUbOPEN Chemogenomic Library” (2024)
